Test results from ChEMBL document CHEMBL1201862, “PubChem BioAssay data set” (2004).
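How tested: cells in 96-well plates exposed to compound for 48 hours at five concentrations. Here, GI50 denotes the concentration required for 50% inhibition of growth.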 Active and inactive are the calls of the source. No stated cut-off is given here; in the data, active = GI50 up to about 1.1 µM and inactive = higher.

Tests used:
Assay in all cases: growth of human tumour cells (NCI), 48 h
KM12 = tested on: KM12
OVCAR-5 = tested on: OVCAR-5
COLO 205 = tested on: COLO 205
UACC-62 = tested on: UACC-62
LOX IMVI = tested on: LOX IMVI
U-251 = tested on: U-251
SNB-78 = tested on: SNB-78
OVCAR-3 = tested on: OVCAR-3
M19-MEL = tested on: M19-MEL
NCI-H460 = tested on: NCI-H460
IGROV-1 = tested on: IGROV-1
RXF 631 = tested on: RXF 631
DMS-114 = tested on: DMS-114
KM-20L2 = tested on: KM-20L2
HL-60 = tested on: HL-60
RXF 393 = tested on: RXF 393
XF498 = tested on: XF498
SK-OV-3 = tested on: SK-OV-3
K562 = tested on: K562
SK-MEL-5 = tested on: SK-MEL-5
SF-268 = tested on: SF-268
HOP-62 = tested on: HOP-62
EKVX = tested on: EKVX
LXFL 529 = tested on: LXFL 529
ACHN = tested on: ACHN
M14 = tested on: M14
SN12C = tested on: SN12C
DMS-273 = tested on: DMS-273
UACC-257 = tested on: UACC-257
SF-295 = tested on: SF-295
CAKI-1 = tested on: CAKI-1
DLD-1 = tested on: DLD-1
OVCAR-8 = tested on: OVCAR-8
SNB-75 = tested on: SNB-75
A549 = tested on: A549
Malme-3M = tested on: Malme-3M
CCRF-CEM = tested on: CCRF-CEM
NCI-H23 = tested on: NCI-H23
HOP-18 = tested on: HOP-18
HOP-92 = tested on: HOP-92
HCT-15 = tested on: HCT-15
SW-620 = tested on: SW-620
NCI-H522 = tested on: NCI-H522
RPMI-8226 = tested on: RPMI-8226
A498 = tested on: A498
SNB-19 = tested on: SNB-19
OVCAR-4 = tested on: OVCAR-4
HCC 2998 = tested on: HCC 2998
UO-31 = tested on: UO-31
TK-10 = tested on: TK-10
SK-MEL-28 = tested on: SK-MEL-28
SK-MEL-2 = tested on: SK-MEL-2
SF-539 = tested on: SF-539
MOLT-4 = tested on: MOLT-4
HT-29 = tested on: HT-29
786-0 = tested on: 786-0
HCT-116 = tested on: HCT-116

In the case of NCCCNCCSSCc1ccccc1CSSCCNCCCN, the GI50 (KM12) was 49.9 µM (inactive), the GI50 (OVCAR-5) was > 100 µM (inactive) and the GI50 (COLO 205) was 39.4 µM (inactive). The GI50 (UACC-62) was 34.1 µM (inactive), the GI50 (LOX IMVI) was 61.1 µM (inactive) and the GI50 (U-251) was > 100 µM (inactive). For the same compound, the GI50 (SNB-78) was 56.5 µM (inactive), the GI50 (OVCAR-3) was 73.8 µM (inactive) and the GI50 (M19-MEL) was 50 µM (inactive). The GI50 (NCI-H460) was > 100 µM (inactive), the GI50 (IGROV-1) was > 100 µM (inactive) and the GI50 (RXF 631) was > 100 µM (inactive). The GI50 (DMS-114) was 57.3 µM (inactive), the GI50 (KM-20L2) was > 100 µM (inactive) and the GI50 (HL-60) was 9.93 µM (inactive). For the same compound, the GI50 (RXF 393) was > 100 µM (inactive), the GI50 (XF498) was 85.1 µM (inactive) and the GI50 (SK-OV-3) was > 100 µM (inactive). For the same compound, the GI50 (K562) was 23.6 µM (inactive), the GI50 (SK-MEL-5) was 79.3 µM (inactive) and the GI50 (SF-268) was 85.1 µM (inactive). For the same compound, the GI50 (HOP-62) was > 100 µM (inactive), the GI50 (EKVX) was > 100 µM (inactive) and the GI50 (LXFL 529) was 30.4 µM (inactive). For the same compound, the GI50 (ACHN) was 37 µM (inactive), the GI50 (M14) was 31.9 µM (inactive) and the GI50 (SN12C) was > 100 µM (inactive). The GI50 (DMS-273) was > 100 µM (inactive), the GI50 (UACC-257) was 25 µM (inactive) and the GI50 (SF-295) was > 100 µM (inactive). For the same compound, the GI50 (CAKI-1) was 35.7 µM (inactive), the GI50 (DLD-1) was 44.4 µM (inactive) and the GI50 (OVCAR-8) was > 100 µM (inactive). For the same compound, the GI50 (SNB-75) was 16.4 µM (inactive), the GI50 (A549) was > 100 µM (inactive) and the GI50 (Malme-3M) was 90.6 µM (inactive). For the same compound, the GI50 (CCRF-CEM) was 4.54 µM (inactive), the GI50 (NCI-H23) was > 100 µM (inactive) and the GI50 (HOP-18) was > 100 µM (inactive). For the same compound, the GI50 (HOP-92) was 25.9 µM (inactive), the GI50 (HCT-15) was 57.1 µM and the GI50 (SW-620) was 16.7 µM (inactive). The GI50 (NCI-H522) was 10.7 µM (inactive), the GI50 (RPMI-8226) was 27.8 µM (inactive) and the GI50 (A498) was > 100 µM (inactive). The GI50 (SNB-19) was > 100 µM (inactive), the GI50 (OVCAR-4) was 70.6 µM (inactive) and the GI50 (HCC 2998) was 81.5 µM (inactive). For the same compound, the GI50 (UO-31) was 60.5 µM (inactive), the GI50 (TK-10) was > 100 µM (inactive) and the GI50 (SK-MEL-28) was 75 µM (inactive). The GI50 (SK-MEL-2) was > 100 µM (inactive), the GI50 (SF-539) was > 100 µM (inactive) and the GI50 (MOLT-4) was 22 µM (inactive). The GI50 (HT-29) was 14.2 µM (inactive).

In the case of O=C1/C(=C/c2ccc(Cl)cc2)CNC/C1=C\c1ccc(Cl)cc1, the GI50 (KM12) was 1.44 µM (inactive), the GI50 (COLO 205) was 2.03 µM (inactive) and the GI50 (UACC-62) was 2.07 µM (inactive). The GI50 (U-251) was 1.36 µM (inactive), the GI50 (SNB-78) was 2.65 µM (inactive) and the GI50 (OVCAR-3) was 1.86 µM (inactive). The GI50 (M19-MEL) was 2.1 µM (inactive), the GI50 (NCI-H460) was 2.11 µM (inactive) and the GI50 (IGROV-1) was 2.17 µM (inactive). For the same compound, the GI50 (RXF 631) was 2.79 µM (inactive), the GI50 (786-0) was 2.07 µM (inactive) and the GI50 (KM-20L2) was 2.64 µM (inactive). For the same compound, the GI50 (XF498) was 2.83 µM (inactive), the GI50 (SK-OV-3) was 10.8 µM (inactive) and the GI50 (SK-MEL-5) was 6.73 µM (inactive). The GI50 (HOP-62) was 3.42 µM (inactive), the GI50 (LXFL 529) was 1.09 µM (active) and the GI50 (ACHN) was 2.07 µM (inactive). The GI50 (M14) was 1.89 µM (inactive), the GI50 (SN12C) was 2.67 µM (inactive) and the GI50 (DMS-273) was 1.98 µM (inactive). For the same compound, the GI50 (CAKI-1) was 2.44 µM (inactive), the GI50 (DLD-1) was 2.38 µM (inactive) and the GI50 (OVCAR-8) was 3.6 µM (inactive). For the same compound, the GI50 (SNB-75) was 2.9 µM (inactive), the GI50 (A549) was 3.4 µM (inactive) and the GI50 (Malme-3M) was 3.81 µM (inactive). The GI50 (NCI-H23) was 1.95 µM (inactive), the GI50 (HOP-18) was 4.89 µM (inactive) and the GI50 (HCT-15) was 1.62 µM. For the same compound, the GI50 (SW-620) was 0.792 µM (active), the GI50 (NCI-H522) was 2.02 µM (inactive) and the GI50 (RPMI-8226) was 0.267 µM (active). For the same compound, the GI50 (A498) was 2.32 µM (inactive), the GI50 (SNB-19) was 1.7 µM (inactive) and the GI50 (HCC 2998) was 2.23 µM (inactive). For the same compound, the GI50 (TK-10) was 4.06 µM (inactive), the GI50 (SK-MEL-28) was 1.82 µM (inactive) and the GI50 (HCT-116) was 1.65 µM (inactive). The GI50 (SF-539) was 1.77 µM (inactive) and the GI50 (MOLT-4) was 2.28 µM (inactive).
